Activity calls are given as the source filed them.

From ChEMBL document CHEMBL1201862, “PubChem BioAssay data set” (2004) come the findings set out here.

One test has as its target Large T antigen (Simian virus 40, UniProt P03070). The format is functional, Betapolyomavirus macacae.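 Also: Confirmatory-stage PubChem screen for compounds that inhibit SV40 T antigen.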
Test [1] deals with T1, Heat shock factor protein 1 (Mus musculus, UniProt P38532).
T1 sequence (P38532 whole entry): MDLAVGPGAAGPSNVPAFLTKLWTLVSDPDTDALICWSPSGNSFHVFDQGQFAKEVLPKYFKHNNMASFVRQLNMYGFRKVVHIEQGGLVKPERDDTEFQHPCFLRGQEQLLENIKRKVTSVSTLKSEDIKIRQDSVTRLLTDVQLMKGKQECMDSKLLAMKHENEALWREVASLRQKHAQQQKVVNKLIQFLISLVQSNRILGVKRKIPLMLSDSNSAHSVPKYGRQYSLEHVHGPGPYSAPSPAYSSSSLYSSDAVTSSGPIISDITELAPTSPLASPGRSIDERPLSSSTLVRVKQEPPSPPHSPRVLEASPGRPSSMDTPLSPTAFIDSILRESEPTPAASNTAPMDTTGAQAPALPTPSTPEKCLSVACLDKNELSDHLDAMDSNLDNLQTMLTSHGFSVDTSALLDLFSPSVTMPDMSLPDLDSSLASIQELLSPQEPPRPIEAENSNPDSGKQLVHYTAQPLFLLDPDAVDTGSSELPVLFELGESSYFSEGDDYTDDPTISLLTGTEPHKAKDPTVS
Description: decrease of HSF1-responsive luciferase luminescence – cell-based, NIH3T3, dose retest, confirmation (AID 2382).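 Also: NIH3T3 fibroblasts with HSF1-driven luciferase reporter stressed by proteasome inhibitor MG132; luminescence from HSF1-driven luciferase expression after 8 hours of MG132 stress.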 Format: functional.

For test [2], the target named is T2, Replicative DNA helicase DnaB (Mycobacterium tuberculosis, UniProt P9WMR3).
T2 sequence (P9WMR3 whole entry): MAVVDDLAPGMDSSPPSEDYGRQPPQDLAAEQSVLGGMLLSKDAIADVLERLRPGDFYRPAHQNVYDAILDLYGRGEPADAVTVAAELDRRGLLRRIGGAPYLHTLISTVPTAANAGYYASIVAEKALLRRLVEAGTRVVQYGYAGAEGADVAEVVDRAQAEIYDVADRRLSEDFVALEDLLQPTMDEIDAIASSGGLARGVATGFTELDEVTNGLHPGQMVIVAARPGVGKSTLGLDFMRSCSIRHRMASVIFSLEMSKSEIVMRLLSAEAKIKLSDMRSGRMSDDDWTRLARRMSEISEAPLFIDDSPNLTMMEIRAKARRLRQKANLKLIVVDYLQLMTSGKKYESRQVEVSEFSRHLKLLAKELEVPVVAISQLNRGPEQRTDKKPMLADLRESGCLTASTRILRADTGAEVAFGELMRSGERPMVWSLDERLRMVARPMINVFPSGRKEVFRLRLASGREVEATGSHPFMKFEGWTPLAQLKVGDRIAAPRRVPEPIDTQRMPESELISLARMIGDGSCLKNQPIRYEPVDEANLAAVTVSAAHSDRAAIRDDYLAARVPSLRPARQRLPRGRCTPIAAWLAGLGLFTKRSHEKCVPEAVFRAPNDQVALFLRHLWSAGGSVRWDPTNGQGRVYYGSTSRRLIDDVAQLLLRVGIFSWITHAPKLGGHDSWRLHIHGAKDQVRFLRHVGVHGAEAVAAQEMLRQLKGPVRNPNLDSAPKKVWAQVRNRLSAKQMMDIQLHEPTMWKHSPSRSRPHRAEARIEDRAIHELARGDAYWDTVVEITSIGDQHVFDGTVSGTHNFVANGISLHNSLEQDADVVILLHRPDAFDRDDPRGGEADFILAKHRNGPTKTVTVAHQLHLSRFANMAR
Description: DnaB intein splicing inhibitors, dose response, biochemical, cell-free fluorescence (AID 449749). Format: functional.

In another test the target is T3, Protein RecA (Mycobacterium tuberculosis, UniProt P9WHJ3).
T3 sequence (P9WHJ3 whole entry): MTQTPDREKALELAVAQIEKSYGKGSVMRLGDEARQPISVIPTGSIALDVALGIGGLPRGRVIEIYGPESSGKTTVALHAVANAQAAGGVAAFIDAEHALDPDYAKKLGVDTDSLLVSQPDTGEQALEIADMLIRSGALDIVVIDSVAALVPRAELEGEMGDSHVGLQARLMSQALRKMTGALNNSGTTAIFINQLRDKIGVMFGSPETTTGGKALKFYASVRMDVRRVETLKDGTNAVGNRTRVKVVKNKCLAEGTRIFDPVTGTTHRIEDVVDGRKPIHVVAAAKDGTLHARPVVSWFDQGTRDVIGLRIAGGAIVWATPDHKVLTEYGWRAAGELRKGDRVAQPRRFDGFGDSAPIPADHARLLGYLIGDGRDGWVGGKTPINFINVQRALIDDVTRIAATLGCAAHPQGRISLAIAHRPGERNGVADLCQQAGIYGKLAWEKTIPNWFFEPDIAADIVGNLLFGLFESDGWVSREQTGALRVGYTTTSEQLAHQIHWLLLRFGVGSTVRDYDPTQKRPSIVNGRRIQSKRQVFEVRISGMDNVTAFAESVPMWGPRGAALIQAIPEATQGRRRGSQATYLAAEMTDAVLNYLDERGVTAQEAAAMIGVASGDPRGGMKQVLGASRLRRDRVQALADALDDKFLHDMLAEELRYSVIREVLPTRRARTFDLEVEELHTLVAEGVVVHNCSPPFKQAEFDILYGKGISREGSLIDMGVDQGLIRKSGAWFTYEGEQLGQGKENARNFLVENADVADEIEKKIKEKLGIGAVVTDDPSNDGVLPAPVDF
In words: Fluorescence Cell-Free Homogeneous Dose Retest to Identify Inhibitors of RecA-Intein Splicing Activity. [Related pubchem assays (depositor defined):AID2097, AID2223, AID489010, AID492950]. Format: functional.

The test system of the next test is H9c2. In words: cells. The format is functional, cell-based. The conditions noted are these: Rattus norvegicus, H9c2, Myocardium.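 Also: confirmatory concentration-response retest of ultra-high-throughput screening hits for modulation of myocardial damage; cell death induced by hydrogen peroxide oxidative stress; compound pretreatment for 60 min then peroxide exposure for 2 h; potency is for protecting the cells against peroxide damage rather than for killing them.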
Test [3] has as its target T4, RNA-binding protein pos-1 (Caenorhabditis elegans, UniProt G5EF15).
T4 sequence (G5EF15 whole entry): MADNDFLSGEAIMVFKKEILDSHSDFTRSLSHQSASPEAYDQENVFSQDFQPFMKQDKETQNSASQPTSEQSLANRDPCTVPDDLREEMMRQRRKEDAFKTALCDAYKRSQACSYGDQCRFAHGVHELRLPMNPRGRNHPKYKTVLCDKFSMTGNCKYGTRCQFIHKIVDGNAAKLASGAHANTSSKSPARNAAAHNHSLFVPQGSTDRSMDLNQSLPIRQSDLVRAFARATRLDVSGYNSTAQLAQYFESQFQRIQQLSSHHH
In words: disruptors of C. elegans POS-1 RNA interaction – biochemical, fluorescence polarization, dose response (AID 1964).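 Also: purified POS-1 fused to maltose binding protein made in E. coli; potency of compounds blocking POS-1 binding to fluorescent RNA.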

For test [4], the target named is T5, Zinc finger protein mex-5 (Caenorhabditis elegans, UniProt Q9XUB2).
T5 sequence (Q9XUB2 whole entry): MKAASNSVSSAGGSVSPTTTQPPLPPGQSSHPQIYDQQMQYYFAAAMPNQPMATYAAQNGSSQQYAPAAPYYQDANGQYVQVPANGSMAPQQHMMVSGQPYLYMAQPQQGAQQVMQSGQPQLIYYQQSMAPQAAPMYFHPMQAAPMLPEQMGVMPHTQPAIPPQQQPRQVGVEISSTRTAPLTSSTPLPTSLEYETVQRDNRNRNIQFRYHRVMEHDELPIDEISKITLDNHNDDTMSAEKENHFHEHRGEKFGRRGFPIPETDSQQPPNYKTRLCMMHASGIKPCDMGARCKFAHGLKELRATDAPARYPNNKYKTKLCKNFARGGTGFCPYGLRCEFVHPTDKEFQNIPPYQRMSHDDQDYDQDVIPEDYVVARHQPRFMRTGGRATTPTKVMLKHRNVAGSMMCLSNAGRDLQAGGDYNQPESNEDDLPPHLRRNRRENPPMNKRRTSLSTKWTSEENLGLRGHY
In words: potency of MEX-5 RNA-binding blockers – biochemical, C. elegans, fluorescence polarization, dose response (AID 1960).

Test [5] deals with Induced myeloid leukemia cell differentiation protein Mcl-1 (Homo sapiens, UniProt Q07820). Format: functional.
The subject of a further test is INS1. In words: INS-1E survival protection against cytokine death – cell-based, luminescence, retest, dose response (AID 449756).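 Also: cell death triggered by IL-1 beta plus TNF-alpha plus IFN-gamma mixture; protective hits raise ATP signal compared with cytokine alone wells.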 The format is functional. The conditions noted are these: Rattus norvegicus.
For test [6], the target named is FAD-linked sulfhydryl oxidase ALR (Homo sapiens, UniProt P55789). Description: ALR-catalysed DTT oxidation blockers – biochemical, H2O2 detection, luminescence, cherry-pick, dose response (AID 493248).
The target of the next test is Cytochrome P450 2D6 (Homo sapiens, UniProt P10635).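 Also: CYP2D6 member of a cytochrome P450 panel assay.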
Another test relates to HEK293. Description: EBV LMP1 TES2 canonical NF-kB signalling blockers – cell-based, HEK293, luciferase, cherry-pick, dose response (AID 588343). Format: functional. The conditions noted are these: Homo sapiens.

Large T antigen, sequence (P03070 whole entry): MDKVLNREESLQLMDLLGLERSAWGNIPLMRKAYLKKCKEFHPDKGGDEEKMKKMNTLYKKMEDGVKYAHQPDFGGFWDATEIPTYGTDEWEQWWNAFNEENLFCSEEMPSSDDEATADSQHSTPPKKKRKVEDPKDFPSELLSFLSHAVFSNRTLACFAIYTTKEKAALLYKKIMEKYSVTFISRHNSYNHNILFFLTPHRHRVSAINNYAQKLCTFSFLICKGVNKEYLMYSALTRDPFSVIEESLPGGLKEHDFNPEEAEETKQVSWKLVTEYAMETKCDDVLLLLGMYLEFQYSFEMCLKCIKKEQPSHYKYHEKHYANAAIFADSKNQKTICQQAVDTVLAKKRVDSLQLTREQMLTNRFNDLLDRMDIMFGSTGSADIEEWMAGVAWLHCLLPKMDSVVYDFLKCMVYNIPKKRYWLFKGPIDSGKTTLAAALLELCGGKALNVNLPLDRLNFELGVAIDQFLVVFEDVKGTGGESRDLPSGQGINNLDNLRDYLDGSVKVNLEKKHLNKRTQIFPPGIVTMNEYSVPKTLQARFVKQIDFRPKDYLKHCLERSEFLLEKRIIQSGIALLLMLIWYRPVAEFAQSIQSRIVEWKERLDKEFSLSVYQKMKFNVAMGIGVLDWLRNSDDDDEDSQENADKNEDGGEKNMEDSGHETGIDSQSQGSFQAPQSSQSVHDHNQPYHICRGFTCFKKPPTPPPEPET
Induced myeloid leukemia cell differentiation protein Mcl-1, sequence (Q07820 whole entry): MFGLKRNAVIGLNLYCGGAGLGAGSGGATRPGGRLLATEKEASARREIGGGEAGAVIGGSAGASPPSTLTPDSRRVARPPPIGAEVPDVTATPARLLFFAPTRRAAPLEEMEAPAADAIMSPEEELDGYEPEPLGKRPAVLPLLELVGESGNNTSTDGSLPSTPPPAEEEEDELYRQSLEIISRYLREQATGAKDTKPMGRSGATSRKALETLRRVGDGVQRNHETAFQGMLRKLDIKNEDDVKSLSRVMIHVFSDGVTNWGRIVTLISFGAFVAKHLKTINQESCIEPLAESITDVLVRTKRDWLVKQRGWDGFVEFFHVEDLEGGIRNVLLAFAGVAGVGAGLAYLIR
FAD-linked sulfhydryl oxidase ALR, sequence (P55789 whole entry): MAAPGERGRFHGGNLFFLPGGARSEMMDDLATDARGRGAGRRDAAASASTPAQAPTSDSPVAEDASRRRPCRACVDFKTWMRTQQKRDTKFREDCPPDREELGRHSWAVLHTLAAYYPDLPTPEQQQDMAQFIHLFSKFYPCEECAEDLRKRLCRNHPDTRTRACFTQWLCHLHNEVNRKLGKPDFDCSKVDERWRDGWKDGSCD
Cytochrome P450 2D6, sequence (P10635 whole entry): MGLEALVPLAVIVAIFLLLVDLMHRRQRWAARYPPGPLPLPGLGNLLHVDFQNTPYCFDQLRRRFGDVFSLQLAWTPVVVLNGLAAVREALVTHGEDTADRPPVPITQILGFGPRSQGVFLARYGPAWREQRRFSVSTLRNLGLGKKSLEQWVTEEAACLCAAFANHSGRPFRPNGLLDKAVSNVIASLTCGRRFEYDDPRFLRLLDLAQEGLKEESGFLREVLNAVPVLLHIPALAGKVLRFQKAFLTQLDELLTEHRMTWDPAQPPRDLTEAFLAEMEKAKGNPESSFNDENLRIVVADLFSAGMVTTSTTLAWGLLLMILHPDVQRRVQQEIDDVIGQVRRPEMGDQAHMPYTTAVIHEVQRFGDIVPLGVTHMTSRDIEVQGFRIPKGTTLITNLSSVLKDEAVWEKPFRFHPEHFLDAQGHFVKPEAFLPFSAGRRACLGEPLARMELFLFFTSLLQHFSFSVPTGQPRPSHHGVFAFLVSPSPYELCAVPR

In the case of `O=C(Nc1ccc(O)cc1)/C(=C\c1cccs1)NC(=O)c1ccccc1`, at Large T antigen, the IC50 was 23 µM (active).

With `C=CCNC(S)=NNC(=O)c1cc(O)ccc1O`, at Large T antigen, the IC50 was > 100 µM (active).

`CCOc1ccc(N=Nc2c(N)n[nH]c2O)cc1`: the EC50 in [1] was > 195 µM (not active); at Protein RecA, 3.85 µM (active). In [2], the AC50 is 15.3 µM (active).

For `Cc1ccccc1NP(=O)(Oc1ccccc1F)Oc1ccccc1F`, the IC50 in the test with H9c2 is > 79 µM (inactive).

In the case of `O=C(Oc1ccc(N(Cc2cccs2)C2=NS(=O)(=O)c3ccccc32)cc1)c1ccccc1Cl`, the IC50 in the test on H9c2 is 23.2 µM (active).

As to `O=C1NC(=O)N(Cc2ccccc2)C(=O)/C1=C/Nc1ccc(CN2CCOCC2)cc1`, the EC50 in test [3] and in [4] was > 300 µM (not active) each time.

As for `O=C(Cn1[nH]c(=O)c2ccccc2c1=O)NC1CCN(Cc2ccccc2)CC1`, in the test with H9c2, the IC50 is > 79 µM (inactive).

As for `N#Cc1c(-c2ccco2)cc(-c2cccnc2)nc1N`, the IC50 with H9c2 was > 79 µM (inactive).

For the compound `Cc1cc(O)c(C(C)C)cc1N=C1CSC(=O)N1`, the EC50 in test [3] is 38.9 µM (active); in [4], 34.6 µM (active).

For `O=C(O)CCc1nc(-c2cccs2)no1`, in test [5], the IC50 is on record as 17.6 µM (not active).

For `CNc1nc2cc([N+](=O)[O-])c([N+](=O)[O-])cc2nc1NC`, in the test on INS1, the AC50 is 0.32 µM (active).

For the compound `NNC(=O)c1cc(-c2ccccc2)sc1N`, on Large T antigen, the IC50 is 17.2 µM (active). Moreover, the AC50 in test [6] is 8.45 µM (active).

With `Cc1ccccc1NC(=O)COc1cccc2c1CCNC2=O`, the IC50 with H9c2 is 13.9 µM (active).

As for `CSc1nc(=S)n(-c2ccc([N+](=O)[O-])cc2)c(C)c1C(C)=O`, the AC50 in test [2] is 40.3 µM (active). Moreover, on Protein RecA, the EC50 is 12.1 µM (active).

For the compound `O=C(O)CCC(=O)Nc1ccc(SSc2ccc(NC(=O)CCC(=O)O)cc2)cc1`, the IC50 at Large T antigen was 5.39 µM (active).

As to `CCn1c(SCC(=O)Nc2ccc(OC)cc2)nc2nc3c(cc2c1=O)CCCC3`, the AC50 in the test on INS1 is 38.7 µM (active).

On to `COc1cc(-c2cc(C(=O)OCC(=O)NC3CC3)c3ccccc3n2)cc(OC)c1OC`, for which the IC50 in the test on H9c2 is > 79 µM (inactive).

Regarding `CCCc1n[nH]c(O)c1C(c1ccc(Br)cc1)C(C#N)C#N` (stereo not drawn), the AC50 in [6] is 2.24 µM (active); in test [2] it was 5.5 µM (active). In addition, the EC50 on Protein RecA is 4.06 µM (active).

As for `COc1ccc(-c2ccc3c(n2)sc2c(=O)[nH]c(=O)[nH]c23)cc1OC`, the IC50 in test [5] is 1.76 µM (active).

Take `Cc1ccc(Sc2c(C)[nH]n(C(C)(C)C)c2=O)cc1`: in [2], the AC50 is 30 µM (active). Besides, the EC50 on Protein RecA is 1.47 µM (active).

On to `COc1ccc(/C=N/NC(=O)c2cc[nH]n2)cc1COc1ccc(Cl)cc1`, for which the IC50 in the test on H9c2 is > 79 µM (inactive). Also, the AC50 on Cytochrome P450 2D6 is 25.1 µM (inconclusive).

Turning to `Cc1c(NC(=O)CSc2ccc(Cl)cc2)cccc1-c1nc2cc(Cl)ccc2o1`, the EC50 in test [3] and in test [4] was > 300 µM (not active) throughout.

`CN(C)c1ccc(C(CNC(=O)c2ccc(F)cc2)c2c[nH]c3ccccc23)cc1` (stereo not drawn): the IC50 in [5] is on record as 3.08 µM (not active).

As to `CC(C)c1n[nH]c2c1C(c1cccnc1)C(C#N)=C(N)O2` (stereo not drawn), in test [2], the AC50 is 1.78 µM (active). At Protein RecA, the EC50 is 1.81 µM (inconclusive).

On to `COCCn1/c(=N/C(=O)c2nc3ccccc3s2)sc2cc(S(C)(=O)=O)ccc21`, for which the IC50 in the test with H9c2 is > 79 µM (inactive).

Consider `COc1ccc(C(=O)Nc2nnc(SCC(=O)NC3CC3)s2)cc1`, for which the AC50 in the test on HEK293 was 4.42 µM (active).

On to `O=C(Nc1ccc(Cl)c(Cl)c1)N1CCSC1c1ccco1` (stereo not drawn), for which the AC50 with INS1 is 11.8 µM (active).

Take `CCN(CC)C(=O)c1cc2c(=O)c3cc(Cl)ccc3oc2nc1C`: the EC50 in test [3] and in test [4] was > 300 µM (not active) each time.

`COc1ccccc1NC(=O)c1cc(-c2ccc(OC)c(OC)c2)nc2ccccc12`: the IC50 in the test with H9c2 is > 79 µM (inactive).

In the case of `CN(C)c1ccc(NC(=O)c2ccc3[nH]cnc3c2)cc1`, the IC50 on Large T antigen was 6.99 µM (active).

Turning to `CCCOc1cccc(C2C(C(=O)c3ccco3)=C(O)C(=O)N2c2nnc(C)s2)c1` (stereo not drawn), the EC50 in [3] was 51.9 µM (active); in test [4], 82.7 µM (active).

As for `COC(=O)C1CCN(C(=O)c2cc(-c3ccc(Cl)s3)nc3ccccc23)CC1`, the AC50 in the test on INS1 was 3.98 µM (active).

On to `CCN(CC)c1ccc(C2C(C(=O)OC(C)C)C(=O)CC(C)(O)C2C(=O)OC(C)C)cc1` (stereo not drawn), for which the IC50 with H9c2 was > 79 µM (inactive).

Take `Cc1ccc(C(=O)Nc2cccc(C(=O)N/N=C/c3ccccc3F)c2)cc1`: the AC50 with HEK293 is 7.43 µM (active).
